Here are results for eight molecules from paper PMC9466600 (ACS Medicinal Chemistry Letters, 2022).

The structures appear in SMILES notation.

In data set [1] the target is m^6A reader domain of YTHDF2 (Homo sapiens, UniProt Q9Y5A9). The following applies: for Potency/affinity for YTHDF2 (in words): HTRF, comparison within Table 1. On the technique in general: In TR-FRET formats the signal depends on donor and acceptor labels being close together.
The conditions of data set [2]: prevented HTRF measurement.
For another data set, the target named is reader domain of YTHDF3 (Homo sapiens, UniProt Q7Z739). The settings on record: from residual signal at 1 mM, Table S1.
In the next data set the target is reader domain of YTHDF1 (Homo sapiens, UniProt Q9BYJ9). The following applies: from residual signal at 1 mM, Table S1.
Chain of reader domain of YTHDF1 (Q9BYJ9 361-559): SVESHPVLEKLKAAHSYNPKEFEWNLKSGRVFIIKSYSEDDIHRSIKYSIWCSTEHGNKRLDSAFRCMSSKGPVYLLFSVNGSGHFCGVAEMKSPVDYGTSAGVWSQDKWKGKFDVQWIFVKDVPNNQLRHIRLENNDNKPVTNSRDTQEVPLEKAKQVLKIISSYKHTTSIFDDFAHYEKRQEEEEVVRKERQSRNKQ

Chain of m^6A reader domain of YTHDF2 (Q9Y5A9 383-579): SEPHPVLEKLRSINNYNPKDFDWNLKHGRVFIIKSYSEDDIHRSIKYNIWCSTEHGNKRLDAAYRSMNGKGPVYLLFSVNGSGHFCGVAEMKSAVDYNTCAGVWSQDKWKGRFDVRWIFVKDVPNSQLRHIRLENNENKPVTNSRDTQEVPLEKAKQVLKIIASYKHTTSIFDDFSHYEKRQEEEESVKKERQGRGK
Chain of reader domain of YTHDF3 (Q7Z739 391-585): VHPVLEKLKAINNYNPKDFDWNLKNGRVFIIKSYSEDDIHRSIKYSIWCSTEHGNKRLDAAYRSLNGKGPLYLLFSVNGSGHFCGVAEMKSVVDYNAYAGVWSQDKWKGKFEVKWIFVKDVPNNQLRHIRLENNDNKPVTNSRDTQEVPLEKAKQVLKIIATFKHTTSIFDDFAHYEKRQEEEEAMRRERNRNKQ

As to `CNc1ncnc2c(-c3ccccc3)[nH]nc12` [Compound 7], the “Selectivity for YTHDF2 against YTHDF1 and YTHDF3 (in words)” value in data set [1] (from residual signal at 1 mM, Table S1) is “modest selectivity”. Turning to `COc1cc(=O)[nH]c(=O)[nH]1` [Compound 10, 6-methoxyuracil], the “Potency/affinity for YTHDF2 (in words)” value in data set [1] is “does not provide higher affinity”. The same measure, in the same setting: in the case of `CNc1ncnc2c(Br)[nH]nc12` [Compound 8] it was “nor any improvement in potency with respect to the methyl of 5”.

With `Cc1[nH]nc2c(NC3CC3)ncnc12` [Compound 6], the “Potency/affinity for YTHDF2 (in words)” value in data set [1] was “lower than the one observed for its parent compound 5”. Take `O=c1cc(C2CC2)[nH]c(=O)[nH]1` [Compound 11, 6-cyclopropyluracil]: in data set [1], the “Potency/affinity for YTHDF2 (in words)” value is recorded as “substantially higher”. Further, the Ligand efficiency in data set [1] (calculated from YTHDF2 IC50) is 0.47 kcal mol^–1 per non-hydrogen atom. As for `CNc1nc(NC)c2ncn(C)c2n1` [Compound 3], the “Solubility (in words)” value in data set [2] was “poor solubility”.

On to `CNc1ncnc2c1ncn2[C@@H]1O[C@H](CO)[C@@H](O)[C@H]1O` [m^6A, N6-methyladenosine, reference compound], for which, in data set [1], the “Potency/affinity for YTHDF2 (in words)” value is reported as “not able to reduce the emitted signal even at high concentrations”. `CNc1ncnc2c(C)[nH]nc12` [Compound 5]: the “Affinity for YTHDF3 (in words)” value on reader domain of YTHDF3 is “weak affinity”. Moreover, the “Affinity for YTHDF1 (in words)” value at reader domain of YTHDF1 is on record as “weak affinity”.
